Reference: PMC6145916, “Interaction of mitochondrial fission factor with dynamin related protein 1 governs physiological mitochondrial function in vivo” (Scientific Reports, 2018)
Where no end group is shown, it is not given here.

Tests used:
primary cortical neurons = assay: Mitochondrial motility, primary cortical neurons; format: cell-based, rat; conditions: 4 µM P259, one hour
Protocol: Bottom, quantification of the form factor (degree of branching) and aspect ratio (major/minor axis length). At least 10,000 mitochondrial fragments were analyzed for each condition. Mitochondrial reactive oxygen species production (MitoSox Red) (b) and membrane potential (TMRM) (c) after overnight treatment with indicated concentrations of peptide (n = 3, with 3 replicates). […] Overlay of live microscopy imaging at time 0 (green) and 150 (red) seconds. […] An estimation of the % mobile mitochondria from the Pearson coefficient of each set of images. Data are mean ± s.e.
To quantify mitochondrial motility, the TMRM images were colored green and red at times 0 and 150 seconds, respectively. Mitochondrial motility corresponded to decreased co-localization of the two colors (Fig. 3d). […] Therefore, Mff-mediated anchoring of Drp1 on the outer mitochondrial membrane was necessary for mitochondrial motility in primary cortical neurons.
DMI6000B inverted microscope. All mitochondria were imaged with a GFP fi lter. Then, green […]
filter every 30 seconds for 5 minutes. The initial image was subtracted from each subsequent image to track signal change over time. […]
GFP filter (Keyence). […] The GFP and MitoSox signals were measured in a ring around each nucleus. Average MitoSox levels were quantified in […]
(§1) To quantify mitochondrial motility, the images at time 0 and 150 seconds w ere overlaid. […]

[1] = tested on: Drp1 with Fis1/Mid49/Mid51; assay: Co-immunoprecipitation of recombinant Drp1 with the other adaptors; format: binding; conditions: 1 µM P259, 2 hours at 4 °C, 200 ng Drp1, 200 ng adaptor, RIPA buffer; representative blot of two independent experiments
HD R6/2 model mice = assay: Survival of R6/2 Huntington's mice; format: in vivo, mouse; conditions: 3 mg/Kg/day, continuous subcutaneous osmotic pump, 8 weeks, vs TAT; 15 mice per group
Excerpt: (a) Quantification of mitochondrial Drp1 content relative to ALDH2 (a mitochondrial matrix enzyme) in the mitochondrial fraction isolated from total brain lysate of wild-type mice (Western blot shown in Fig. S3B) (n = 4 mice). (b) ATP content in brain tissue of wild-type mice (n = 4 mice, 2 replicates). (c) Representative transmission electron microscopy images of the striatum from wild-type mice. […] The first principal component represents 42% of the variation. (f) Local linear embedding dimensionality reduction and visualization of all behaviors collected weekly from TAT- (black) or P259- (purple) treated WT and TAT- (white) treated R6/2 mice over the course of 8 weeks. […] All behavior and survival tests were conducted by an experienced observer who was blinded to the treatment groups. Data are mean ± s.e.
Five-week old R6/2 HD mice and their wild-type littermates (a total of 60 mice) were implanted subcutaneously with a 28-d Alzet osmotic pump with either P259-TAT or TAT control peptide (15 mice per group) to be delivered continuously at a rate of 3 mg/Kg/day, as previously described. All mice were implanted twice for a total of an 8-week treatment. 20 of the WT mice were implanted 3 times for a total of a 12-week treatment at 3 mg/Kg/day. […]
as §1

YGRKKRRQRRRGSGIIQLPEIVVV-NH2 (C-terminus assumed) [P259]
% mobile mitochondria (primary cortical neurons; TMRM images 0 vs 150 sec, estimated from Pearson coefficient, basal approximately 37%, n = 4 control and 6 P259): ~ 22%
decline in the proportion of mobile mitochondria (primary cortical neurons; vs no peptide control): 40%
binding of other receptors (Fis1, Mid49, Mid51) to co-immunoprecipitated recombinant Drp1 [1]: without affecting the binding of any other receptor
survival of HD R6/2 mice (HD R6/2 model mice): further decline in survival
